Consider seven cell lines from the supplement of paper PMC10307832.

Holding throughout (test): relative viability (nuclei count vs DMSO), 5 days (fraction); higher = more cells survive
Compound in the experiment “IU1-47 + OSI-027”: CC1=CC(=C(N1C2=CC=C(C=C2)Cl)C)C(=O)CN3CCCCC3 [IU1-47] + COc1cccc2cc(-c3nc([C@H]4CC[C@H](C(=O)O)CC4)n4ncnc(N)c34)[nH]c12 [OSI-027] (partner 0.5 µM)
A digest of the protocol: (§1)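 Each reported value is a median over duplicate plates. It expresses relative viability: treated-well nuclei count divided by vehicle-well nuclei count. Lung cancer cell lines in 1536-well plates were dosed by pin tool a day after seeding, alone with one drug or with a fixed anchor-drug dose plus five library-drug doses (not always all listed) in √10 steps, and nuclei were counted after 5 days.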

Compound in the experiment “IU1-47 + Tozasertib”: CC1=CC(=C(N1C2=CC=C(C=C2)Cl)C)C(=O)CN3CCCCC3 [IU1-47] + Cc1cc(Nc2cc(N3CCN(C)CC3)nc(Sc3ccc(NC(=O)C4CC4)cc3)n2)n[nH]1 [Tozasertib] (partner 0.1 µM)
The gist of the method:
as §1

Compound in the experiment “IU1-47 + Linsitinib”: CC1=CC(=C(N1C2=CC=C(C=C2)Cl)C)C(=O)CN3CCCCC3 [IU1-47] + C[C@]1(O)C[C@@H](c2nc(-c3ccc4ccc(-c5ccccc5)nc4c3)c3c(N)nccn32)C1 [Linsitinib] (partner 1 µM)
The gist of the method: as §1

Compound in the experiment “IU1-47 + Pictilisib”: CC1=CC(=C(N1C2=CC=C(C=C2)Cl)C)C(=O)CN3CCCCC3 [IU1-47] + CS(=O)(=O)N1CCN(Cc2cc3nc(-c4cccc5[nH]ncc45)nc(N4CCOCC4)c3s2)CC1 [Pictilisib] (partner 1 µM)
The gist of the method: as §1

As to NCI-H3122, the relative viability with IU1-47 + OSI-027 (first compound 0.08 µM) turned out to be 1.07; with IU1-47 + OSI-027 (first compound 0.253 µM) it was 0.961; with IU1-47 + OSI-027 (first compound 0.8 µM) it was 1.05; in the experiment with IU1-47 + OSI-027 (first compound 2.53 µM) it was 0.987; with IU1-47 + OSI-027 (first compound 8 µM) it was 0.954; in the experiment with IU1-47 + Tozasertib (first compound 0.08 µM) it was 0.442. In addition, the relative viability with IU1-47 + Tozasertib (first compound 0.253 µM) worked out at 0.423; with IU1-47 + Tozasertib (first compound 0.8 µM), 0.371; in the experiment with IU1-47 + Tozasertib (first compound 2.53 µM), 0.46; with IU1-47 + Tozasertib (first compound 8 µM), 0.331; with IU1-47 + Linsitinib (first compound 0.08 µM) it was 1; with IU1-47 + Linsitinib (first compound 0.253 µM), 1.07. The relative viability with IU1-47 + Linsitinib (first compound 0.8 µM) came to 1.08; with IU1-47 + Linsitinib (first compound 2.53 µM) it was 1.15; in the experiment with IU1-47 + Linsitinib (first compound 8 µM), 1.01; with IU1-47 + Pictilisib (first compound 0.08 µM), 0.556; with IU1-47 + Pictilisib (first compound 0.253 µM), 0.615; with IU1-47 + Pictilisib (first compound 0.8 µM) it was 0.666. Further, the relative viability with IU1-47 + Pictilisib (first compound 2.53 µM) worked out at 0.625; with IU1-47 + Pictilisib (first compound 8 µM), 0.581.

For PC-3 [JPC-3], the relative viability with IU1-47 + OSI-027 (first compound 0.08 µM) is 0.796; with IU1-47 + OSI-027 (first compound 0.253 µM) it was 0.874; in the experiment with IU1-47 + OSI-027 (first compound 0.8 µM), 0.716; with IU1-47 + OSI-027 (first compound 2.53 µM), 0.705; in the experiment with IU1-47 + OSI-027 (first compound 8 µM) it was 0.555; with IU1-47 + Tozasertib (first compound 0.08 µM) it was 0.913. Moreover, the relative viability was found to be 0.903 with IU1-47 + Tozasertib (first compound 0.253 µM); 0.922 with IU1-47 + Tozasertib (first compound 0.8 µM); 0.851 with IU1-47 + Tozasertib (first compound 2.53 µM); 0.773 in the experiment with IU1-47 + Tozasertib (first compound 8 µM); 0.99 with IU1-47 + Linsitinib (first compound 0.08 µM); 0.927 with IU1-47 + Linsitinib (first compound 0.253 µM). Also, the relative viability in the experiment with IU1-47 + Linsitinib (first compound 0.8 µM) turned out to be 0.978; with IU1-47 + Linsitinib (first compound 8 µM), 1.04; with IU1-47 + Pictilisib (first compound 0.08 µM) it was 0.756; with IU1-47 + Pictilisib (first compound 0.253 µM), 0.745; with IU1-47 + Pictilisib (first compound 0.8 µM), 0.852; with IU1-47 + Pictilisib (first compound 8 µM), 0.734.

As for PC-14, the relative viability in the experiment with IU1-47 + OSI-027 (first compound 0.08 µM) was found to be 0.881; with IU1-47 + OSI-027 (first compound 0.253 µM), 0.925; with IU1-47 + OSI-027 (first compound 0.8 µM), 1.11; with IU1-47 + OSI-027 (first compound 2.53 µM), 0.302; with IU1-47 + OSI-027 (first compound 8 µM), 0.847; with IU1-47 + Tozasertib (first compound 0.08 µM) it was 0.707. Further, the relative viability with IU1-47 + Tozasertib (first compound 0.253 µM) was found to be 0.685; with IU1-47 + Tozasertib (first compound 0.8 µM) it was 0.661; with IU1-47 + Tozasertib (first compound 8 µM), 0.581; in the experiment with IU1-47 + Linsitinib (first compound 0.08 µM) it was 1.02; with IU1-47 + Linsitinib (first compound 0.253 µM), 1.04; in the experiment with IU1-47 + Linsitinib (first compound 0.8 µM), 1.01. Further, the relative viability with IU1-47 + Linsitinib (first compound 2.53 µM) is 1.05; with IU1-47 + Linsitinib (first compound 8 µM), 0.94; with IU1-47 + Pictilisib (first compound 0.08 µM) it was 0.896; with IU1-47 + Pictilisib (first compound 0.253 µM), 0.706; in the experiment with IU1-47 + Pictilisib (first compound 0.8 µM), 0.673; with IU1-47 + Pictilisib (first compound 2.53 µM) it was 0.82. Moreover, the relative viability with IU1-47 + Pictilisib (first compound 8 µM) amounted to 0.437.

RERF-LC-KJ: the relative viability with IU1-47 + OSI-027 (first compound 0.08 µM) was determined as 0.596; with IU1-47 + OSI-027 (first compound 0.253 µM), 0.586; in the experiment with IU1-47 + OSI-027 (first compound 0.8 µM) it was 0.565; with IU1-47 + OSI-027 (first compound 2.53 µM), 0.36; in the experiment with IU1-47 + OSI-027 (first compound 8 µM), 0.567; with IU1-47 + Tozasertib (first compound 0.08 µM) it was 0.495. The relative viability with IU1-47 + Tozasertib (first compound 0.253 µM) was 0.567; in the experiment with IU1-47 + Tozasertib (first compound 0.8 µM), 0.522; in the experiment with IU1-47 + Tozasertib (first compound 2.53 µM) it was 0.452; with IU1-47 + Tozasertib (first compound 8 µM), 0.405; with IU1-47 + Linsitinib (first compound 0.08 µM), 0.889; in the experiment with IU1-47 + Linsitinib (first compound 0.253 µM) it was 0.865. In addition, the relative viability in the experiment with IU1-47 + Linsitinib (first compound 0.8 µM) was 0.872; in the experiment with IU1-47 + Linsitinib (first compound 2.53 µM), 0.957; with IU1-47 + Linsitinib (first compound 8 µM), 0.893; in the experiment with IU1-47 + Pictilisib (first compound 0.08 µM), 0.538; with IU1-47 + Pictilisib (first compound 0.253 µM), 0.659; with IU1-47 + Pictilisib (first compound 0.8 µM) it was 0.41. The relative viability amounted to 0.489 in the experiment with IU1-47 + Pictilisib (first compound 2.53 µM) and 0.595 with IU1-47 + Pictilisib (first compound 8 µM).

SK-LU-1: the relative viability is 0.4 in the experiment with IU1-47 + OSI-027 (first compound 0.08 µM); 0.32 with IU1-47 + OSI-027 (first compound 0.253 µM); 0.309 in the experiment with IU1-47 + OSI-027 (first compound 0.8 µM); 0.362 with IU1-47 + OSI-027 (first compound 2.53 µM); 0.323 with IU1-47 + OSI-027 (first compound 8 µM); 0.316 in the experiment with IU1-47 + Tozasertib (first compound 0.08 µM). For the same cell line, the relative viability in the experiment with IU1-47 + Tozasertib (first compound 0.253 µM) was 0.361; with IU1-47 + Tozasertib (first compound 0.8 µM), 0.309; with IU1-47 + Tozasertib (first compound 2.53 µM), 0.318; in the experiment with IU1-47 + Tozasertib (first compound 8 µM), 0.292; with IU1-47 + Linsitinib (first compound 0.08 µM), 1.16; with IU1-47 + Linsitinib (first compound 0.253 µM) it was 1.08. Besides, the relative viability with IU1-47 + Linsitinib (first compound 0.8 µM) stood at 1.32; in the experiment with IU1-47 + Linsitinib (first compound 2.53 µM) it was 1.16; with IU1-47 + Linsitinib (first compound 8 µM), 1.17; with IU1-47 + Pictilisib (first compound 0.08 µM), 0.668; with IU1-47 + Pictilisib (first compound 0.253 µM), 0.728; with IU1-47 + Pictilisib (first compound 0.8 µM), 0.578. For the same cell line, the figures for the relative viability in the experiment with IU1-47 + Pictilisib (first compound 2.53 µM) and with IU1-47 + Pictilisib (first compound 8 µM) were 0.58 and 0.382, respectively.

Consider SK-MES-1, for which the relative viability worked out at 0.668 with IU1-47 + OSI-027 (first compound 0.08 µM); 0.674 with IU1-47 + OSI-027 (first compound 0.253 µM); 0.606 in the experiment with IU1-47 + OSI-027 (first compound 0.8 µM); 0.348 in the experiment with IU1-47 + OSI-027 (first compound 2.53 µM); 0.509 with IU1-47 + OSI-027 (first compound 8 µM); 1 in the experiment with IU1-47 + Tozasertib (first compound 0.08 µM). In addition, the relative viability stood at 1.03 with IU1-47 + Tozasertib (first compound 0.253 µM); 0.906 with IU1-47 + Tozasertib (first compound 0.8 µM); 0.868 with IU1-47 + Tozasertib (first compound 2.53 µM); 0.935 with IU1-47 + Tozasertib (first compound 8 µM); 1.13 in the experiment with IU1-47 + Linsitinib (first compound 0.08 µM); 1.31 with IU1-47 + Linsitinib (first compound 0.253 µM). The relative viability with IU1-47 + Linsitinib (first compound 0.8 µM) is 1.12; with IU1-47 + Linsitinib (first compound 2.53 µM), 1.01; with IU1-47 + Linsitinib (first compound 8 µM) it was 1.11; with IU1-47 + Pictilisib (first compound 0.08 µM), 0.402; with IU1-47 + Pictilisib (first compound 0.253 µM), 0.396; with IU1-47 + Pictilisib (first compound 0.8 µM) it was 0.351. The relative viability with IU1-47 + Pictilisib (first compound 2.53 µM) amounted to 0.398; in the experiment with IU1-47 + Pictilisib (first compound 8 µM), 0.371.

For SW 1573, the relative viability with IU1-47 + OSI-027 (first compound 0.08 µM) turned out to be 0.675; in the experiment with IU1-47 + OSI-027 (first compound 0.253 µM) it was 0.618; with IU1-47 + OSI-027 (first compound 0.8 µM) it was 0.583; in the experiment with IU1-47 + OSI-027 (first compound 2.53 µM), 0.216; in the experiment with IU1-47 + OSI-027 (first compound 8 µM), 0.607; with IU1-47 + Tozasertib (first compound 0.08 µM), 0.17. Also, the relative viability amounted to 0.167 with IU1-47 + Tozasertib (first compound 0.253 µM); 0.176 with IU1-47 + Tozasertib (first compound 0.8 µM); 0.184 with IU1-47 + Tozasertib (first compound 2.53 µM); 0.143 with IU1-47 + Tozasertib (first compound 8 µM); 0.942 with IU1-47 + Linsitinib (first compound 0.08 µM); 0.674 in the experiment with IU1-47 + Linsitinib (first compound 0.253 µM). In addition, the relative viability in the experiment with IU1-47 + Linsitinib (first compound 0.8 µM) came out at 0.694; in the experiment with IU1-47 + Linsitinib (first compound 2.53 µM), 0.746; with IU1-47 + Linsitinib (first compound 8 µM), 0.843; in the experiment with IU1-47 + Pictilisib (first compound 0.08 µM), 0.524; in the experiment with IU1-47 + Pictilisib (first compound 0.253 µM), 0.563; in the experiment with IU1-47 + Pictilisib (first compound 0.8 µM), 0.391. Further, the relative viability with IU1-47 + Pictilisib (first compound 2.53 µM) was determined as 0.553; with IU1-47 + Pictilisib (first compound 8 µM), 0.471.
